Data published in PMC12307992, “The Potential Influence of Associated Antidepressants on the Pharmacokinetic Profile of Esketamine in Patients Affected by Treatment-resistant Depression” (Current Neuropharmacology, 2025).

Key:
[1] = design: method as in earlier work; settings: ref Data on File. Esketamine. Summary of Clinical Pharmacology. Janssen Research & Development, LLC. EMDS-ERI-149761559; 2018; cited from earlier work
[2] = after intranasal administration; cited from earlier work
[3] = Salivary esketamine levels (LC-MS/MS) after intranasal esketamine 56 mg in TRD patients
[4] = Serum esketamine levels (LC-MS/MS) after intranasal esketamine 56 mg in TRD patients; settings: for AUC: human, serum, other: intranasal, 56 mg, AUC value, 0-72 h
[5] = phase 3 studies; cited from earlier work
[6] = Clinical rating scales at baseline and one month after first intranasal esketamine; assay type: in vivo, patients
Text: (§1) To assess the changes in clinical status with treatment, we administered the following clinical scales at BL and one month after the first intranasal esketamine: clinician-rated Brief Psychiatric Rating Scale-version 4.0 (BPRS-24) to evaluate psychiatric symptoms; Montgomery-Åsberg Depression Rating Scale (MADRS) and Hamilton Depression Rating Scale (HAM-D) to assess depression; Hamilton Anxiety Rating Scale (HAM-A) to assess anxiety; Young Mania Rating Scale (YMRS) to assess manic symptoms, Clinical Global Impressions Scale (CGI) to assess the overall severity (CGI-S) and improvement (CGI-I), with CGI-S administered at both timepoints and CGI-I only at 1 month. Self-rated scales included the Beck Depression Inventory, 2nd edition (BDI-II), used to assess the cognitive aspects of depression (Beck’s cognitive triad), and the World Health Organization Quality of Life Scale-Brief (WHOQOL-BREF) to assess patient’s quality-of-life (QoL). For all scales save the WHOQOL-BREF, higher scores indicate higher psychopathology, while for the WHOQOL-BREF, higher scores reflect better QoL. Furthermore, we administered the clinician-rated Agitation-Calmness Evaluation Scale (ACES) to assess agitation vs. sedation during the first esketamine administration phase (BL to 72 hours). ACES is a single-item scale, in which scores from 1 to 3 are inversely related to the degree of agitation, and scores from 5 to 9 are directly related to calmness and sedation, until the score of 8 and 9, which indicate deep sleep and unarousable state, respectively. Finally, we evaluated dissociation with the Clinician-Administered Dissociative States Scale (CADSS) following the first esketamine administration (BL to 72 hours).

[7] = Adverse events 20 min post-esketamine (blood pressure, dizziness, confusion, ACES) in relation to serum levels; assay type: in vivo, patients
Method: Adverse events of intranasal administration of esketamine were evaluated 20 min post-esketamine initiation, such as changes in systolic and diastolic blood pressure, vertigo, dissociation, dizziness, sedation, headache, nausea and vomiting, and confusion.
as §1
After having applied the Shapiro-Wilk test to ascertain the normality of distribution of our sample and the Mauchly sphericity test to assess the validity of the Analysis of Variance (ANOVA), we proceeded by performing parametric tests. We used the ANOVA-1way to compare samples for continuous variables and Fishers Least Significant Difference (LSD) to test differences in nominal variables. We used Grubbs’ test (alpha=0.05) to identify statistically significant outliers to exclude them from further analyses. Correlations were sought through Pearson’s r correlation coefficient. Besides concentrations, we calculated the area under the curve (AUC) as stated above. For all other calculations, we used the IBM Statistical Package for the Social Sciences (SPSS), version 29.0 (September 2022, Armonk, New York: IBM Corporation).

[8] = one month following initial esketamine administration, 15 patients
[9] = 20 min post-esketamine, 15 patients

CC[C@H]1OC(=O)[C@H](C)[C@@H](O[C@H]2C[C@@](C)(OC)[C@@H](O)[C@H](C)O2)[C@H](C)[C@@H](O[C@@H]2O[C@H](C)C[C@H](N(C)C)[C@H]2O)[C@](C)(OC)C[C@@H](C)C(=O)[C@H](C)[C@@H](O)[C@]1(C)O [clarithromycine]
Effect of co-treatment on the PK profile of esketamine [1]: negligible effect

CN[C@]1(c2ccccc2Cl)CCCCC1=O [esketamine, (S)-isomer of ketamine]
elimination half-life (t½) [2]: 7 to 12 h | time to reach maximum plasma concentrations (Tmax) [2]: 0.333 to 0.667 h | Salivary levels of esketamine at 20 min relative to serum levels ([3]; 56 mg intranasal): several-fold greater than serum levels | Esketamine levels in the saliva after 72 hours ([3]; a few patients on fluoxetine/paroxetine, duloxetine or venlafaxine/desvenlafaxine): still detectable | concentration at 20 min ([3]; human, saliva, other: intranasal, 56 mg): > 1000 ng/mL | Serum esketamine levels after 72 hours ([4]; 56 mg intranasal, all groups): undetectable | AUC value of patient greater than average value of the group ([4]; group 2 patient on oxcarbazepine vs group 2 average): 46% | AUC ([4]; average of group, group 1 (paroxetine/fluoxetine)): 868 ng·h/mL | AUC ([4]; average of group, group 2 (duloxetine)): 655 ng·h/mL | AUC ([4]; average of group, group 3 (venlafaxine/desvenlafaxine)): 857 ng·h/mL | AUC ([4]; average of group, group 4 (sertraline/citalopram/escitalopram)): 419 ng·h/mL | AUC ([4]; average of group, group 5 (vortioxetine)): 439 ng·h/mL | AUC ([4]; average of group, group 6 (TCAs/mirtazapine/trazodone)): 705 ng·h/mL | AUC ([4]; single patient, group 1 patient on paroxetine, bupropion, valproate and atorvastatine): 628 ng·h/mL | AUC ([4]; single patient, group 2 patient also on oxcarbazepine): 954 ng·h/mL | AUC ([4]; single patient, group 3 patient also on valproate): 298 ng·h/mL | AUC ([4]; single patient, group 3 patient also on valproate and atorvastatin): 599 ng·h/mL | AUC ([4]; single patient, group 4 patient also on topiramate): 921 ng·h/mL | AUC ([4]; single patient, group 5 patient also on prednisone): 957 ng·h/mL | AUC ([4]; single patient, group 6 patient on mirtazapine and oxcarbazepine): 260 ng·h/mL | Patients with a rise in blood pressure [5]: < 10% | Global scores of all clinical scales (BPRS-Total, MADRS, BDI, WHOQOL-BREF or CGI) ([6]; 1 month after esketamine administration): improved | YMRS values ([6]; absolute score, all patients): < 8 | Patients in whom HAM-A values dropped ([6]; baseline to 1 month): 51 of 53 | Patients with YMRS scores increased [6, 8]: 28.3% | Patients with YMRS scores unchanged [6, 8]: 28.3% | Patients with YMRS scores decreased ([6]; one month following initial esketamine administration, 23 patients): 43.4% | Correlation (χ2) of confusion with serum esketamine levels ([7]; 20 min post-administration, p < 0.05): 3.830 | Correlation (χ2) of dizziness with serum esketamine levels ([7]; 20 min post-administration, p = 0.043): 4.114 | Patients with blood pressure reduced [7, 9]: 28.3% | Patients with blood pressure relatively unchanged [7, 9]: 28.3% | Patients with a rise in systolic blood pressure ([7]; 20 min post-esketamine, 23 of 53 patients): 43.4% | Correlation (r) between serum esketamine values and changes in systolic blood pressure ([7]; at 20 min, p = 0.0003): 0.23 | Correlation (r) between esketamine levels and changes in ACES ([7]; at 20 minutes, p = 0.02): 0.1
